Experiment [1] has as its target human NaV1.7 (with β1 subunit) stably expressed in HEK-293 cells (Homo sapiens (Human), UniProt Q15858). Put plainly: Patch voltage clamp electrophysiology assay (EP), inactivated-state block. It is filed as cell-based. The settings on record: membrane potential held at -60 mV; read-out: affinity for the inactivated state of NaV1.7. As to the method:
Patch voltage clamp electrophysiology allows for the direct measurement and quantification of block of voltage-gated sodium channels (NaV's), and allows the determination of the time- and voltage-dependence of block which has been interpreted as differential binding to the resting, open, and inactivated states of the sodium channel (Hille, B., Journal of General Physiology (1977), 69: 497-515).
Currents were recorded at 40 kHz sampling frequency, filtered at […], and stored using a Digidata-1322A analogue/digital interface with the pClamp software (Axon Instruments). Series resistance compensation was applied (60-80%). […] All statistics in this study are given as mean±SD.
The membrane potential was maintained at a voltage where inactivation of the channel is complete (which was −60 mV for both NaV1.7 and NaV1.5). The voltage is then stepped back to a very negative (Vhold=[…]) voltage for 20 ms and then a test pulse is applied to quantify the compound block. The 20 ms brief repolarization was long enough for compound-free channels to completely recover from fast inactivation, but the compound-bound channels recovered more slowly such that negligible recovery could occur during this interval. The percent decrease in sodium current following wash-on of compound was taken as the percent block of sodium channels.

In another experiment the target is hNav1.7 (Homo sapiens (Human), UniProt Q15858). As to the kind of experiment: Tritiated sulfonamide competitive binding to membranes from cells expressing hNav1.7 and the β1 subunit.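 Note: displacement of the tritiated ligand from recombinant cell membranes, read by liquid scintillation counting of filter-bound radioactivity, nonspecific binding defined with 1 µM unlabelled compound.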 Particulars: 100 pM [3H]compound, 18 h, room temperature; inactivated state of NaV1.7 membrane binding; read-out: NaV1.7 Ligand Binding Assay (IC50).
hNav1.7, sequence (Q15858 other isoform, or with tags, fused parts or gaps): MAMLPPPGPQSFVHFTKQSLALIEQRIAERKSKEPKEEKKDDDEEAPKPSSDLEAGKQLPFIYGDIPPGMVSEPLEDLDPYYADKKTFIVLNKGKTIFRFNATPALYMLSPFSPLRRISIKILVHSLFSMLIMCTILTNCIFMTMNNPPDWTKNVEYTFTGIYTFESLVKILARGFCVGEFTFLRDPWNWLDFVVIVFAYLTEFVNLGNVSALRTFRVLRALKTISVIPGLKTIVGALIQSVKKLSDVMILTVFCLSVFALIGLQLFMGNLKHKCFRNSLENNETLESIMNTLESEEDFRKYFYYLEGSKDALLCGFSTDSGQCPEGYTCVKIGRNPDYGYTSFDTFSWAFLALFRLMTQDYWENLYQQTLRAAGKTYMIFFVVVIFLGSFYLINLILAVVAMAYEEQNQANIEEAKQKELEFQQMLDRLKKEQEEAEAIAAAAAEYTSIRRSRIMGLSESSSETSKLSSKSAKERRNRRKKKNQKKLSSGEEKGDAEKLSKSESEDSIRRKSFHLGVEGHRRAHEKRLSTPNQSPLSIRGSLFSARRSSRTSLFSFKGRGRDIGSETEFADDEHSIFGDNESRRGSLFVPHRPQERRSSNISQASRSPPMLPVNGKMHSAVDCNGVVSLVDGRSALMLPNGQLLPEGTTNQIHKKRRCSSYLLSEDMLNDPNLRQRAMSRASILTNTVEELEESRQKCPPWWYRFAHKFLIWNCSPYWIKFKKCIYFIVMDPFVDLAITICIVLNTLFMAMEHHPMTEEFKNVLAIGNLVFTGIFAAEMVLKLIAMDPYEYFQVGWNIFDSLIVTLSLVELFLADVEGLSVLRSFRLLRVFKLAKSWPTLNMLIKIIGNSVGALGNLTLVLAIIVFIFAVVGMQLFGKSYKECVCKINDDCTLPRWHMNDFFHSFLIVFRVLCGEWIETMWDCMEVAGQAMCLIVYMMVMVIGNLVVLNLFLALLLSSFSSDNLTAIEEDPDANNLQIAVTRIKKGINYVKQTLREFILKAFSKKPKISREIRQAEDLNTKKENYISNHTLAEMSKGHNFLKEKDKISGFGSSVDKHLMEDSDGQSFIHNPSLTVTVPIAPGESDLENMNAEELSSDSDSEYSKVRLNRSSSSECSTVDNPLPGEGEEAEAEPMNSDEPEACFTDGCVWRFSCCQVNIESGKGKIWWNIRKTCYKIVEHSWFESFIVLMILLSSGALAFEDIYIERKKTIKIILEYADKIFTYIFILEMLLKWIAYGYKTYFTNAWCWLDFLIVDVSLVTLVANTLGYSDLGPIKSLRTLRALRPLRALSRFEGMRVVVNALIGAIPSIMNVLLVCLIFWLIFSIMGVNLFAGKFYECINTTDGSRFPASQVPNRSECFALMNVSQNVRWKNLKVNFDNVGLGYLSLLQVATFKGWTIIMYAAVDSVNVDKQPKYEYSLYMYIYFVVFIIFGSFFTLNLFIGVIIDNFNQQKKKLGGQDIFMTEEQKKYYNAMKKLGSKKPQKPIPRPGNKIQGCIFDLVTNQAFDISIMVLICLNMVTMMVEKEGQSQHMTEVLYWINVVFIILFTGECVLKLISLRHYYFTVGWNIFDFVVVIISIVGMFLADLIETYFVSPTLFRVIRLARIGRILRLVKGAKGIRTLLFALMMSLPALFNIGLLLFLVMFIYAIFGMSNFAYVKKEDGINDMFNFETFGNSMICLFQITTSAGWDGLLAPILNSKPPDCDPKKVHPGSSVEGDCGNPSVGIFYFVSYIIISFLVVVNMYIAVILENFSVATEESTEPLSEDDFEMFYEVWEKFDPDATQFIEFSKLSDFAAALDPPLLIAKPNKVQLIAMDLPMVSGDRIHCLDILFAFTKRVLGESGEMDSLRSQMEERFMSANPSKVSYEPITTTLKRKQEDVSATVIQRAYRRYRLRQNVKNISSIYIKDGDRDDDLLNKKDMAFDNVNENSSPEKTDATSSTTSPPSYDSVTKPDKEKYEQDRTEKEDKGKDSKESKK
hNav1.7, sequence (Q07699 19-218 partner): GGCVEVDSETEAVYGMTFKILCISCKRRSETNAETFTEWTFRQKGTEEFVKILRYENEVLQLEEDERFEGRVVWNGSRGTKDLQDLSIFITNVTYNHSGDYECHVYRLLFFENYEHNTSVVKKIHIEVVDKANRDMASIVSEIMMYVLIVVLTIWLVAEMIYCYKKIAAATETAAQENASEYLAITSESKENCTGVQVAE

human NaV1.7 (with β1 subunit) stably expressed in HEK-293 cells, sequence (Q15858 other isoform, or with tags, fused parts or gaps): as the sequence (Q15858 other isoform, or with tags, fused parts or gaps) above
human NaV1.7 (with β1 subunit) stably expressed in HEK-293 cells, sequence (Q07699 19-218 partner): as the sequence (Q07699 19-218 partner) above

Regarding `CS(=O)(=O)Nc1nnc2cc(COc3ccc(Cl)c(Cl)c3)c(Br)cn12` [Example 55, N-(6-bromo-7-((3,4-dichlorophenoxy)methyl)-[1,2,4]-triazolo[4,3-a]pyridin-3-yl)-methanesulfonamide], the IC50 (in experiment [1]; on hNav1.7) was 2.6 nM throughout.
For `CS(=O)(=O)Nc1nnc2cc(COc3cc(Cl)cc(OC(F)(F)F)c3)c(C3CC3)cn12` [Example 43, N-(7-((3-chloro-5-(trifluoromethoxy)phenoxy)methyl)-6-cyclopropyl-[1,2,4]triazolo[4,3-a]pyridin-3-yl)methanesulfonamide], at hNav1.7, the IC50 is 2.5 nM.
Still for that read-out and setting: the same measure for `CS(=O)(=O)Nc1nnc2cc(OCCC34CC5CC(CC(C5)C3)C4)c(C3CC3)cn12` [Example 76, N-(7-(2-43r,5r,7r)-adamantan-1-yl)ethoxy)-6-cyclopropyl-[1,2,4]triazolo[4,3-a]pyridin-3-yl)methanesulfonamide]: 9 nM; for `CS(=O)(=O)Nc1nnc2cc(OC[C@H]3CC[C@H](C)CC3)c(C3CC3)cn12` [Example 33]: 18.4 nM.

For the origin of these results see US9550775B2, “Substituted triazolopyridines and methods of use thereof” (GENENTECH, INC., priority 2013, dated 2017).
